Results reported in patent US6750375B2, “Transgenic mouse comprising a disruption in an RGS9 gene” (California Institute of Technology, priority 2000, dated 2004).

Assays:
Assay type in all cases: in vivo, mouse
[1] = tested on: RGS9 knockout mice and their wild type littermates; experiment: Locomotor activity (photobeam cage rack) in unlesioned animals
Protocol: (§1) RGS9 knockout mice and their wild type littermates were placed in the photobeam cage rack activity system. The photobeam cage rack activity system was made by San Diego Instruments. Single events represent disruption of two distinct light beams 10 cm apart. Before drug administration, animals were allowed to habituate for 30 min. which was scored as baseline activity. […] All drugs were injected intraperitoneally. Drug effects were assessed for 30 min. Bodyweight was measured prior to all drug applications.
Locomotion in Unlesioned Animals

[2] = tested on: RGS9 knockout mice and their wild type littermates; experiment: Locomotion in dopamine depleted (reserpine treated) animals
Protocol: as §1
There are several options to induce behavioral changes secondary to a dopaminergic deficit in rodents. However, a strong phenotype in mice is difficult o achieve. […] Therefore, we depleted the animals of dopamine using chronic treatment with reserpine (1 mg /kg per day×5 days). […] Baseline locomotor activity was already greater in homozygous knock-out animals (FIG. 2, n. s.).

[3] = tested on: RGS9 knockout mice and their wild type littermates; experiment: Dyskinesia rating (abnormal involuntary movements) in reserpine treated animals; settings: apomorphine 5 mg/kg after chronic reserpine
Description: To score for abnormal involuntary movements we adapted a rating scale that was previously used to score drug induced dyskinesia in monkeys (Goulet and Madra, JPET 2000). Both, trunk and limb, dyskinesia and stereotypic behavior were rated-absent (=O), mild (=1), moderate (=or 2) or severe (=3).
Using a modified monkey dyskinesia scale, there was a dramatic difference between homozygous knock out animals and wild type or heterozygous mice (FIG. 3).

Compound: C[C@H](N)Cc1ccccc1 [amphetamine, d-amphetamine]
- increase in locomotion, homozygous knock-out vs wild type ([1]; amphetamine 5 mg/kg intraperitoneal, homozygous knock-out animals, p<0.05, t-test): significantly greater increase in locomotion
- locomotion ([1]; amphetamine 5 mg/kg intraperitoneal, wild type and RGS9 deficient animals): robust increase in locomotion

Compound: COC(=O)[C@H]1[C@H]2C[C@@H]3c4[nH]c5cc(OC)ccc5c4CCN3C[C@H]2C[C@@H](OC(=O)c2cc(OC)c(OC)c(OC)c2)[C@@H]1OC [reserpine]
- spontaneous locomotion ([2]; reserpine 1 mg/kg per day x 5 days): greatly reduced spontaneous locomotion

Compound: Oc1cc2c(cc1O)C(c1ccccc1)CNCC2 (stereo not shown) [SKF 38393]
- increase in locomotion ([1]; SKF 38393 10 mg/kg, all animals, no differences between genotypes (p=0.7)): 2 fold

Compound: CN1CCc2cccc3c2[C@H]1Cc1ccc(O)c(O)c1-3 [apomorphine]
- abnormal motor behavior (dystonia, hyperkinetic movements of the hindlimbs) [3]: induced abnormal motor behavior only in homozygous knockout animals
- locomotor activity ([2]; apomorphine 5 mg/kg after chronic reserpine, all animals): induced locomotor activity in all animals
- locomotor activity, homozygous knock-out vs other animals ([2]; apomorphine 5 mg/kg after chronic reserpine, homozygous knock out animals, p<0.05): more pronounced in homozygous knock out animals
